Converted amounts (≈) assume the structure as drawn. “Also recorded” adds a separate entry of the source. Like-named read-outs stand apart in the source and are kept apart here.
Columns and labels:
[1] = test system: Klebsiella pneumoniae strain MS6771; experiment: MIC by broth microdilution (CLSI); assay type: cell-based; details: for antibiotic sensitivity of resistant strain: Klebsiella pneumoniae MS6771, addition of sub-inhibitory PBT2+zinc(II) ions; for MIC: Klebsiella pneumoniae
[2] = test system: Vancomycin-resistant Enterococci (VRE) clinical isolate RBWH1; experiment: MIC by broth microdilution (CLSI); assay type: cell-based, Enterococcus; details: Enterococcus, VRE, read-out: MIC
Method: (§1) J. Path. Bact. […] Proc. Soc.
(§2) MIC assays were carried out in biological triplicates.
(§3) M100 Performance Standards for Antimicrobial Susceptibility Testing, 27th Edition.

[3] = test system: GAS strain HKU16 (Streptococcus pyogenes strain HKU16); experiment: microbe, parasite or virus in culture; assay type: cell-based; details: GAS
Method: as §1, §2, §3

[4] = test system: Methicillin-resistant Staphylococcus aureus (MRSA) strain USA300; experiment: MIC by broth microdilution (CLSI); details: for MIC: Staphylococcus aureus; for antibiotic sensitivity of resistant strain: addition of sub-inhibitory PBT2+zinc(II) ions
[5] = test system: Streptococcus pneumoniae 23F; experiment: MIC by broth microdilution (CLSI); assay type: cell-based
[6] = MS6771, Klebsiella pneumoniae, CQ: 0 μM, Zinc: 0 μM, read-out: MIC
[7] = MS6771, Klebsiella pneumoniae, CQ: 64 μM, Zinc: 256 μM, read-out: MIC
[8] = MS6771, Klebsiella pneumoniae, CQ: 64 μM, read-out: MIC
[9] = MS6771, Klebsiella pneumoniae, PBT2: 0 μM, Zinc: 0 μM, read-out: MIC
[10] = MS6771, Klebsiella pneumoniae, PBT2: 64 μM, Zinc: 256 μM, read-out: MIC
[11] = MS6771, Klebsiella pneumoniae, PBT2: 64 μM, read-out: MIC
[12] = MS6771, Klebsiella pneumoniae, Zinc: 256 μM (CQ panel), read-out: MIC
[13] = MS6771, Klebsiella pneumoniae, Zinc: 256 μM (PBT2 panel), read-out: MIC
[14] = MRSA|USA300, MRSA, RA-HQ-12: 3.5 μM, oxacillin with 2% NaCl
[15] = MRSA|USA300, MRSA USA300, CQ: 0.75 μM, Zinc: 16 μM, +2% NaCl
[16] = MRSA|USA300, MRSA USA300, PBT2: 2 μM, Zinc: 25 μM, +2% NaCl

Compound	MIC [1, 6] [µg/mL]	MIC [1, 7] [µg/mL]	MIC [1, 8] [µg/mL]	MIC [1, 9] [µg/mL]	MIC [1, 10] [µg/mL]	MIC [1, 11] [µg/mL]	MIC [1, 12] [µg/mL]	MIC [1, 13] [µg/mL]	further results
NCC[C@H](O)C(=O)N[C@@H]1C[C@H](N)[C@@H](O[C@H]2O[C@H](CN)[C@@H](O)[C@H](O)[C@H]2O)[C@H](O)[C@H]1O[C@H]1O[C@H](CO)[C@@H](O)[C@H](N)[C@H]1O [Amikacin, amikacin]	> 128	> 128	> 128	> 128	> 128	> 128	> 128	> 128	antibiotic sensitivity of resistant strain [1]: not
CC[C@H]1OC(=O)[C@H](C)[C@@H](O[C@H]2C[C@@](C)(OC)[C@@H](O)[C@H](C)O2)[C@H](C)[C@@H](O[C@@H]2O[C@H](C)C[C@H](N(C)C)[C@H]2O)[C@](C)(O)C[C@@H](C)CN(C)[C@H](C)[C@@H](O)[C@]1(C)O [Azithromycin, azithromycin]	–	–	–	–	–	–	–	–	MIC ([2]; RA-HQ-12: 3.5 μM, Zn: […]): > 128 µg/mL; MIC ([2]; RA-HQ-12: 3.5 μM): > 128 µg/mL; MIC ([2]; Zn: […] (RA-HQ-12 panel)): > 128 µg/mL; MIC ([2]; RA-HQ-12: 0 μM, Zn: 0 μM): > 128 µg/mL; MIC ([1]; MS6771, K. pneumoniae, RA-HQ-12: 0 μM, Zn: 0 μM, read-out: MIC): 32 µg/mL (≈ 42.7 µM); MIC ([1]; MS6771, K. pneumoniae, RA-HQ-12: 16 μM, Zn: 64 μM, read-out: MIC): 32 µg/mL (≈ 42.7 µM); MIC ([1]; MS6771, K. pneumoniae, RA-HQ-12: 16 μM, read-out: MIC): 32 µg/mL (≈ 42.7 µM); MIC ([1]; MS6771, K. pneumoniae, Zn: 64 μM, read-out: MIC): 32 µg/mL (≈ 42.7 µM); MIC ([3]; Streptococcus pyogenes, RA-HQ-12: 0 μM, Zn: 0 μM, read-out: MIC): > 128 µg/mL; MIC [4]: 128 µg/mL (≈ 171 µM); MIC ([4]; MRSA|USA300, MRSA, RA-HQ-12: 3.5 μM, Zn: […], oxacillin with 2% NaCl): 32 µg/mL (≈ 42.7 µM); MIC [4, 14]: 64 µg/mL (≈ 85.4 µM)
CO[C@@]1(NC(=O)Cc2cccs2)C(=O)N2C(C(=O)O)=C(COC(N)=O)CS[C@@H]21 [Cefoxitin, cefoxitin]	128 (≈ 299 µM)	64 (≈ 150 µM)	64 (≈ 150 µM)	128 (≈ 299 µM)	64 (≈ 150 µM)	64 (≈ 150 µM)	128 (≈ 299 µM)	128 (≈ 299 µM)	–
CCO/N=C(\C(=O)N[C@@H]1C(=O)N2C(C(=O)[O-])=C(Sc3nc(-c4cc[n+](C)cc4)cs3)CS[C@H]12)c1nsc(N)n1 [Ceftaroline]	> 128	> 128	> 128	> 128	> 128	> 128	> 128	> 128	–
CC(C)(O/N=C(\C(=O)N[C@@H]1C(=O)N2C(C(=O)[O-])=C(C[n+]3ccccc3)CS[C@H]12)c1csc(N)n1)C(=O)O [Ceftazidime, ceftazidime]	32 (≈ 58.5 µM)	16 (≈ 29.3 µM)	16 (≈ 29.3 µM)	32 (≈ 58.5 µM)	32 (≈ 58.5 µM)	32 (≈ 58.5 µM)	32 (≈ 58.5 µM)	32 (≈ 58.5 µM)	–
C[C@H]1c2cccc(O)c2C(=O)C2=C(O)[C@]3(O)C(=O)C(C(N)=O)=C(O)[C@@H](N(C)C)[C@@H]3[C@@H](O)[C@@H]21 [Doxycycline, doxycycline]	8 to 16 (≈ 18 to 36 µM)	8 (≈ 18 µM)	8 (≈ 18 µM)	8 to 16 (≈ 18 to 36 µM)	4 (≈ 9 µM)	4 to 8 (≈ 9 to 18 µM)	8 to 16 (≈ 18 to 36 µM)	8 to 16 (≈ 18 to 36 µM)	–
CC[C@H]1OC(=O)[C@H](C)[C@@H](O[C@H]2C[C@@](C)(OC)[C@@H](O)[C@H](C)O2)[C@H](C)[C@@H](O[C@@H]2O[C@H](C)C[C@H](N(C)C)[C@H]2O)[C@](C)(O)C[C@@H](C)C(=O)[C@H](C)[C@@H](O)[C@]1(C)O [Erythromycin, erythromycin]	–	–	–	–	–	–	–	–	antibiotic sensitivity of resistant strain ([4]; MRSA USA300): became sensitive; also recorded: reversed; MIC ([4]; MRSA USA300, CQ: 0 μM, Zinc: 0 μM): 64 µg/mL (≈ 87.2 µM); MIC ([4]; MRSA USA300, CQ: 1 μM): 64 µg/mL (≈ 87.2 µM); MIC ([4]; MRSA USA300, CQ: 1 μM, Zinc: 32 μM): 1 µg/mL (≈ 1.36 µM); MIC ([4]; MRSA USA300, PBT2: 0 μM, Zinc: 0 μM): 64 µg/mL (≈ 87.2 µM); MIC ([4]; MRSA USA300, PBT2: 2 μM): 32 µg/mL (≈ 43.6 µM); MIC ([4]; MRSA USA300, PBT2: 2 μM, Zinc: 50 μM): 0.5 µg/mL (≈ 0.681 µM); MIC ([4]; MRSA USA300, Zinc: 32 μM): 64 µg/mL (≈ 87.2 µM); MIC ([4]; MRSA USA300, Zinc: 50 μM): 64 µg/mL (≈ 87.2 µM); MIC [4, 14]: 64 µg/mL (≈ 87.2 µM)
C[C@@H](O)[C@H]1C(=O)N2C(C(=O)O)=C(S[C@@H]3CN[C@H](C(=O)N(C)C)C3)[C@H](C)[C@H]12 [Meropenem, meropenem]	64 (≈ 167 µM)	8 to 16 (≈ 20.9 to 41.7 µM)	8 to 16 (≈ 20.9 to 41.7 µM)	64 (≈ 167 µM)	16 (≈ 41.7 µM)	32 (≈ 83.4 µM)	16 to 32 (≈ 41.7 to 83.4 µM)	16 to 32 (≈ 41.7 to 83.4 µM)	–
COc1cccc(OC)c1C(=O)N[C@@H]1C(=O)N2[C@@H]1SC(C)(C)[C@@H]2C(=O)O [Methicillin, methicillin]	–	–	–	–	–	–	–	–	MIC ([4]; MRSA USA300, CQ: 0 μM, Zinc: 0 μM, +2% NaCl): > 128 µg/mL; MIC ([4]; MRSA USA300, CQ: 0.75 μM, +2% NaCl): > 128 µg/mL; MIC ([4]; MRSA USA300, PBT2: 2 μM, +2% NaCl): > 128 µg/mL; MIC ([4]; MRSA USA300, Zinc: 16 μM, +2% NaCl): > 128 µg/mL; MIC ([4]; MRSA USA300, Zinc: 25 μM, +2% NaCl): > 128 µg/mL; MIC [4, 15]: > 128 µg/mL; MIC ([4]; MRSA|USA300, MRSA USA300, PBT2: 0 μM, Zinc: 0 μM, +2% NaCl): > 128 µg/mL; MIC [4, 16]: > 128 µg/mL
Cc1onc(-c2ccccc2)c1C(=O)N[C@@H]1C(=O)N2[C@@H]1SC(C)(C)[C@@H]2C(=O)O [Oxacillin, oxacillin]	–	–	–	–	–	–	–	–	MIC ([3]; RA-HQ-12: 3.5 μM): 0.125 µg/mL (≈ 0.311 µM); antibiotic sensitivity of resistant strain ([4]; MRSA USA300): became sensitive; MIC [4, 15]: 0.5 to 1 µg/mL (≈ 1.25 to 2.49 µM); MIC [4, 16]: 1 to 2 µg/mL (≈ 2.49 to 4.98 µM)
CN(C)c1cc(NC(=O)CNC(C)(C)C)c(O)c2c1C[C@H]1C[C@H]3[C@H](N(C)C)C(O)=C(C(N)=O)C(=O)[C@@]3(O)C(O)=C1C2=O [Tigecycline, tigecycline]	–	–	–	–	–	–	–	–	antibiotic sensitivity of resistant strain [1]: became sensitive; MIC ([1]; MS6771, Klebsiella pneumoniae, CQ: 0 μM, Zinc: 0 μM): 4 µg/mL (≈ 6.83 µM); MIC ([1]; MS6771, Klebsiella pneumoniae, CQ: 64 μM): 4 µg/mL (≈ 6.83 µM); MIC ([1]; MS6771, Klebsiella pneumoniae, CQ: 64 μM, Zinc: 256 μM): 4 µg/mL (≈ 6.83 µM); MIC ([1]; MS6771, Klebsiella pneumoniae, PBT2: 0 μM, Zinc: 0 μM): 4 µg/mL (≈ 6.83 µM); MIC ([1]; MS6771, Klebsiella pneumoniae, PBT2: 64 μM): 2 µg/mL (≈ 3.41 µM); MIC ([1]; MS6771, Klebsiella pneumoniae, PBT2: 64 μM, Zinc: 256 μM): 2 µg/mL (≈ 3.41 µM); MIC ([1]; MS6771, Klebsiella pneumoniae, Zinc: 256 μM (CQ panel)): 4 µg/mL (≈ 6.83 µM); MIC ([1]; MS6771, Klebsiella pneumoniae, Zinc: 256 μM (PBT2 panel)): 4 µg/mL (≈ 6.83 µM)
COc1cc(Cc2cnc(N)nc2N)cc(OC)c1OC [Trimethoprim, trimethoprim]	> 128	> 128	> 128	> 128	> 128	> 128	> 128	> 128	–
gentamicin	–	–	–	–	–	–	–	–	MIC ([5]; PBT2: 0 μM, Zinc: 0 μM): 64 µg/mL; MIC ([5]; PBT2: 8 μM): 4 µg/mL; MIC ([5]; PBT2: 8 μM, Zinc: 32 μM): 1 µg/mL; MIC ([5]; Zinc: 32 μM): 64 µg/mL

Reference: US20200261440A1, “ZINC IONOPHORES AND USES THEREOF” (THE UNIVERSITY OF QUEENSLAND, priority 2017, published 2020)
